According to patent US20190218479A1, “Stabilized Liquid Peroxide Compositions” (Novozymes A/S, priority 2016, published 2019):

Columns and labels:
Assay type in all cases: physicochemical
[1] = target: T1, Subtilisin1 (Lederbergia lenta, UniProt P29600, M216S); assay: Residual activity of Subtilisin1 after storage in peroxide model detergents with or without subtilisin stabilizers (N,N-dimethylcasein/TNBS)
[2] = target: T1, Subtilisin1; assay: as above; conditions: model detergents with hydrogen peroxide, pH 7 and 9; summary of Example 2
Description: Chemicals used as buffers and substrates were commercial products of at least reagent grade. Subtilisin1 has the amino acid sequence as shown in SEQ ID NO: 2, which is a subtilisin having a M216 substitution according to the invention. Subtilisin2 has the amino acid sequence as shown in SEQ ID NO: 1, which is a reference subtilisin not covered by the invention. The stock solution of each subtilisin contains 4.4% w/w of active enzyme protein. Stabilizer1: Cbz-Gly-Ala-Tyr-H (C-terminal aldehyde), wherein Cbz is benzyloxycarbonyl; which is a subtilisin stabilizer according to the invention. When used in the examples below, Stabilizer1 was added to the subtilisin stock solution at a concentration of 0.28% w/w. Stabilizer2: Cbz-Gly-Ala-NHCH(CH2C6H4pOH)CH(OH)(OSO3)Na (hydrosulfite adduct of a C-terminal aldehyde) wherein Cbz is benzyloxycarbonyl; which is a subtilisin stabilizer according to the invention. When used in the examples below, Stabilizer2 was added to the subtilisin stock solution at a concentration of 0.35% w/w. Stabilizer3: MeOCO-Val-Ala-Leu-H (C-terminal aldehyde). When used in the examples below, Stabilizer3 was added to the subtilisin stock solution at a concentration of 0.28% w/w. Stabilizer4: 4-formyl-phenyl-boronic acid (4-FPBA); which is a reference protease stabilizer not covered by the invention. When used in the examples below, Stabilizer4 was added to the subtilisin stock solution at a concentration of 3.4% w/w.
(§1) The compositions were prepared as shown in the examples and samples stored in closed vials for storage. Residual activity was measured by comparing activity in a stored sample at the time of taken out of incubation without freezing and comparing activity to a freshly prepared sample without peroxide and dividing activity in the stored sample with activity in the fresh sample.
(§2) Activity analysis is performed by analysing protease activity by hydrolysis of N,N-dimethylcasein to produce a carboxylic acid and a primary amine compounds. The primary amines that are formed react, under alkaline conditions, with tri-nitrobenzenesulfonic acid (TNBS) to form a colored complex. The amount of colored complex that forms over the fixed reaction period at a constant temperature (530 seconds at 40° C.; complex absorbance is measured at 405 nm) is related to the amount of active protease present in the sample. The amount of colored product complex produced is compared to a standard curve based on known protease concentrations to calculate the amount of active protease in the detergent sample. The amount of protease activity at a specific time point is compared to the t=0 activity level to calculate the % active protease remaining.
This study examined Subtilisin1 stability in the presence of hydrogen peroxide, with and without subtilisin stabilizers (Stabilizer4 and Stabilizer2) in two different model detergents at pH 7 and 9.

[3] = Stability of Subtilisin1 and Subtilisin2 in the liquid peroxide composition of Table 1 (residual protease activity, N,N-dimethylcasein/TNBS); conditions: liquid peroxide composition in Table 1 (0.8% H2O2, pH 7.0), 4 weeks
Description: as §1, §2

[4] = Residual hydrogen peroxide after storage, permanganate titration; conditions: liquid peroxide composition in Table 1, 37° C., 4 weeks
Description: Residual hydrogen peroxide (H2O2) was measured by permanganate titration (reduction of potassium permanganate by hydrogen peroxide in sulfuric acid).

[5] = Subtilisin1 in “Mix Laundry” (Table 19, pH 7.5) no H2O2, no sodium salicylate, no polyDADMAC
[6] = Subtilisin1 in “Mix Laundry” (Table 19, pH 7.5) with 1% H2O2, with sodium salicylate, with polyDADMAC
[7] = Subtilisin1 in “NI pretreat” (Table 19, pH 7.0) with 1% H2O2, with sodium salicylate, with polyDADMAC
[8] = Subtilisin1 in “NI pretreat” (Table 19, pH 7.0) without H2O2, no sodium salicylate, no polyDADMAC

T1 sequence (P29600 whole entry M216S): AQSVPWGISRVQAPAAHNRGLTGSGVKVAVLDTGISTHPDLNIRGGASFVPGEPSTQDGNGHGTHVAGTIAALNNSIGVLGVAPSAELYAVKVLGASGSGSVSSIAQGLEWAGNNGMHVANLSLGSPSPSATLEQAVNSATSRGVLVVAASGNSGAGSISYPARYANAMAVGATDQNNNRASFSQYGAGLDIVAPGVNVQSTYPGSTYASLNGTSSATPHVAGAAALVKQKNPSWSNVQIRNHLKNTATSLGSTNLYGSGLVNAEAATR

Molecule | Residual activity after storage for 2 weeks at 30° C. [1, 5] | Residual activity after storage for 2 weeks at 30° C. [1, 6] | Residual activity after storage for 2 weeks at 37° C. [1, 7] | Residual activity after storage for 2 weeks at 37° C. [1, 8] | stabilization of Subtilisin1, compared to Stabilizer4 [2] | % Subtilisin residual activity after 4 weeks ([3]; 22° C.) | % Subtilisin residual activity after 4 weeks ([3]; 30° C.) | % Subtilisin residual activity after 4 weeks ([3]; 37° C.) | Residual H2O2 after 4 weeks [4]
O=BOB(O)OB(O)OB=O [borax, reference compound] | 81% | 43% | 22% | 117% | – | – | – | – | –
O=Cc1ccc(B(O)O)cc1 [Stabilizer4, 4-formyl-phenyl-boronic acid, reference compound] | 86% | 20% | 11% | 129% | – | – | – | – | –
Cbz-Gly-Ala-NHCH(CH2C6H4pOH)CH(OH)(OSO3)Na [Stabilizer2] | 83% | 52% | 61% | 98% | much more effective stabilization | – | – | – | –
MeOCO-Val-Ala-Leu-H [Stabilizer3] | 83% | 60% | 64% | 95% | – | – | – | – | –
Subtilisin2: subtilisin with amino acid sequence SEQ ID NO: 1, reference subtilisin not covered by the invention (protein, listed as Bacillus lentus) AQSVPWGISRVQAPAAHNRGLTGSGVKVAVLDTGISTHPDLNIRGGASFVPGEPSTQDGNGHGTHVAGTIAALNNSIGVLGVAPSAELYAVKVLGASGSGSVSSIAQGLEWAGNNGMHVANLSLGSPSPSATLEQAVNSATSRGVLVVAASGNSGAGSISYPARYANAMAVGATDQNNNRASFSQYGAGLDIVAPGVNVQSTYPGSTYASLNGTSMATPHVAGAAALVKQKNPSWSNVQIRNHLKNTATSLGSTNLYGSGLVNAEAATR | – | – | – | – | – | 35% | 33% | 15% | 95.8%
